Source: BindingDB's records for patent US20230364079 (Chengdu Hyperway Pharmaceuticals, 2023)

Biological target: Tyrosine-protein kinase BTK (Homo sapiens, UniProt Q06187)
Assay: BTK Kinase Activity Inhibition Test in Vitro

Sequence of Tyrosine-protein kinase BTK (Q06187 whole entry): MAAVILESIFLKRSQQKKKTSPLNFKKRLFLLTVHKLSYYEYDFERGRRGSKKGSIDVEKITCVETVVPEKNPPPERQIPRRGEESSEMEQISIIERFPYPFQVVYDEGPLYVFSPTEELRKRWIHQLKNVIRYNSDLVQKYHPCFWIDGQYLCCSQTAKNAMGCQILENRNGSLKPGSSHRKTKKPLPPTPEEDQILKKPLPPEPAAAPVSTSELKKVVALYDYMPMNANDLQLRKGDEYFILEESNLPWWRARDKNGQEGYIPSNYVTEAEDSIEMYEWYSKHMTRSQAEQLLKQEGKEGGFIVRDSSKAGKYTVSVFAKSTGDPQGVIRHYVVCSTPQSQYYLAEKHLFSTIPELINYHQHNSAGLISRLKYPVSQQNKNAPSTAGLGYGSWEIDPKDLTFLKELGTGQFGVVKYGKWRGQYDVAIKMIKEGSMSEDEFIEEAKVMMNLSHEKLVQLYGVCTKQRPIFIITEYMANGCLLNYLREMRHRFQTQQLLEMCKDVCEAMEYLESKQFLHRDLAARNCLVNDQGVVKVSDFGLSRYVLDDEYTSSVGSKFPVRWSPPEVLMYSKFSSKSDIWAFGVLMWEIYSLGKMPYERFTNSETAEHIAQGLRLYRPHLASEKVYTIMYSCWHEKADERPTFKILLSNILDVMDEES

| Structure (SMILES) | IC50 |
| --- | --- |
| Nc1nccn2c(C3CCC(CO)OC3)nc(-c3ccc(Oc4cccc(OC(F)(F)F)c4F)cc3)c12 (stereo unspecified) [US20230364079, Example 6] | < 5 nM |
| Nc1nccn2c(C3CCC(CO)OC3)nc(-c3ccc(Oc4cccc(Cl)c4F)cc3)c12 (stereo unspecified) [US20230364079, Example 9] | < 5 nM |
| COc1cccc(Oc2ccc(-c3nc(C4CCC(CO)OC4)n4c(Cl)cnc(N)c34)c(F)c2)c1F (stereo unspecified) [US20230364079, Example 11] | < 5 nM |
| COc1cccc(Oc2ccc(-c3nc(C4CCC(CO)OC4)n4c(Cl)cnc(N)c34)cc2)c1F (stereo unspecified) [US20230364079, Example 12] | < 5 nM |
| Nc1nccn2c(C3CCC(CO)OC3)nc(-c3ccc(Oc4cccc(OC(F)(F)F)c4F)cc3F)c12 (stereo unspecified) [US20230364079, Example 13] | < 5 nM |
| Nc1ncc(Cl)n2c(C3CCC(CO)OC3)nc(-c3ccc(Oc4cccc(OC(F)(F)F)c4F)cc3)c12 (stereo unspecified) [US20230364079, Example 14] | < 5 nM |
